Experimental data from PubChem BioAssay (NCI).
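In this assay, cells in 96-well plates receive the compound at five concentrations for 48 hours. Endpoints are linearly interpolated between the surrounding concentrations. GI50 is the concentration that inhibits growth by half. TGI: concentration producing complete growth inhibition.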

Assays:
Assay in all cases: NCI tumour cell line growth inhibition, 48 h
A549 NSCLC = tested on: A549 NSCLC
COLO 205 colon = tested on: COLO 205 colon
OVCAR-5 ovarian = tested on: OVCAR-5 ovarian
OVCAR-3 ovarian = tested on: OVCAR-3 ovarian
UACC-257 melanoma = tested on: UACC-257 melanoma
NCI-H23 lung = tested on: NCI-H23 lung
SK-MEL-28 melanoma = tested on: SK-MEL-28 melanoma
SNB-75 CNS = tested on: SNB-75 CNS
LOX IMVI melanoma = tested on: LOX IMVI melanoma
NCI-H460 lung = tested on: NCI-H460 lung

SMILES | TGI (A549 NSCLC) [µM] | TGI (COLO 205 colon) [µM] | TGI (OVCAR-5 ovarian) [µM] | TGI (OVCAR-3 ovarian) [µM] | TGI (UACC-257 melanoma) [µM] | TGI (NCI-H23 lung) [µM] | TGI (SK-MEL-28 melanoma) [µM] | TGI (SNB-75 CNS) [µM] | TGI (LOX IMVI melanoma) [µM] | GI50 (NCI-H460 lung) [µM] | TGI (NCI-H460 lung) [µM] | GI50 (A549 NSCLC) [µM] | GI50 (COLO 205 colon) [µM] | GI50 (OVCAR-5 ovarian) [µM] | GI50 (OVCAR-3 ovarian) [µM] | GI50 (UACC-257 melanoma) [µM] | GI50 (NCI-H23 lung) [µM] | GI50 (SK-MEL-28 melanoma) [µM] | GI50 (LOX IMVI melanoma) [µM] | GI50 (SNB-75 CNS) [µM]
Fc1cccc2cc3ccc4cccc5ccc(c12)c3c45 | > 100 | > 100 | > 100 | > 100 | > 100 | > 100 | > 100 | > 100 | > 100 |  |  |  |  |  |  |  |  |  |  | 
COc1ccc(-c2nnc(SCC(=O)Nc3ccc(/C(C)=N\O)cc3)n2-c2ccccc2)cc1OC | > 100 | > 100 | > 100 | > 100 | > 100 | > 100 | > 100 |  | > 100 | > 100 | > 100 | 9.73 | > 100 | > 100 | 7.87 | > 100 | 12.9 | > 100 | > 100 | 
CC(=O)Nc1ccc(/C=N\N2C(=O)c3ccccc3C2=O)cc1 | > 100 |  | > 100 | > 100 | > 100 | > 100 | > 100 | > 100 | > 100 |  | > 100 |  |  |  |  |  |  |  |  | 
Cc1ccc(/C=C2/SC(Nc3nc(-c4nc(NC5=NC(=O)/C(=C\c6ccc(C)cc6)S5)sc4C)c(C)s3)=NC2=O)cc1 | > 36.6 | > 50 | > 50 | 1.51 | 20.5 | 8.46 | > 50 |  | 12.2 | 0.643 | > 50 | 1.37 | 35.2 | 8.05 | 0.329 | 1.04 | 0.895 | 35.3 | 0.287 | 
NC(=NC1CCCCCCC1)c1ccc(N2CCN(c3ccc(C(N)=NC4CCCCCCC4)cc3)CC2)cc1 | > 100 | 39.3 | 39 | 13.8 |  | 45.8 | 22.8 | 15.7 | > 100 | 11.9 | > 100 | 4.25 | 13.3 | 14.9 | 1.73 |  | 6.8 | 6.75 | > 100 | 3.7
Cc1ccc2c(c1C)-c1c(ccc(C)c1C)C(=O)C2=O | 10.3 | 4.62 | 3.42 | 1.1 | 3.48 | 2.81 | 2.83 |  | 3.76 |  | 3.4 |  |  |  |  |  |  |  |  | 
Cc1cc(C)c2c(c1)Nc1ccccc1P2c1ccccc1 (stereo not drawn) | > 100 | > 100 |  | 61 |  | 83.8 | > 100 | 78.5 | > 100 |  | 50.8 |  |  |  |  |  |  |  |  | 
COCC1N=C(c2cc(OC)c(OC)c(OC)c2-c2cc3c(cc2C2OCCCO2)OCO3)O[C@H]1c1ccccc1 (stereo partly drawn) | > 100 |  | > 100 | > 100 | > 100 | > 100 | > 100 | > 100 | > 100 |  | > 100 |  |  |  |  |  |  |  |  | 
O=C(O)CCSCCCN1C(=O)c2ccccc2C1=O | > 100 | > 100 | > 100 | > 100 | > 100 | > 100 | > 100 | > 100 |  |  |  |  |  |  |  |  |  |  |  | 
O=C(/C=C/c1ccc(Cl)c(Cl)c1)c1ccc(F)cc1 | > 100 | 52 | 55.2 | 38.1 | 58 | 83.2 | 39.5 | 58.3 |  |  | 54.9 |  |  |  |  |  |  |  |  | 
CC1CC2C(=O)N(c3ccccc3)C(=O)C2c2c1c1ccccc1n2Cc1ccccc1 (stereo not drawn) | > 100 | > 100 | > 100 | > 100 |  |  |  |  | > 100 |  | > 100 |  |  |  |  |  |  |  |  | 
O=c1[nH]nc2ccccc2c1Cl | 91.5 | 23.4 | 33.9 | 6.21 | 29.7 | 35.9 |  | 47.1 | 37.5 |  | 46.2 |  |  |  |  |  |  |  |  | 
Cn1ccc2c(c1=O)C(=O)c1nccc3c1c-2nc1ccccc13 | 2.9 | 2.96 | 3.46 |  |  | 2.8 | 3.05 | 2.43 | 2.81 | 1.36 | 3.09 | 1.47 | 1.57 | 1.92 |  |  | 1.27 | 1.61 | 1.4 | 1.17
COc1ccc(C(=O)/C=C/c2c(C(F)(F)F)nc3sccn23)cc1OC | > 100 | 72.4 | 39.1 | 6.14 | > 100 | 27.9 | > 100 | > 100 |  | 1.94 | 6.65 | 4.65 | 4.56 | 4.18 | 2.12 | 7.77 | 2.78 | 8.48 |  | 6.87
[C-]#[O+].[C-]#[O+].[C-]#[O+].[C-]#[O+].[Ir].[Ir].[O-]c1ccc2ccccc2c1C=Nc1ccc(N=Cc2c([O-])ccc3ccccc23)cc1 | > 100 | > 100 | > 100 | > 100 | > 100 | > 100 |  |  | > 100 | > 100 | > 100 | > 100 | > 100 | > 100 | > 100 | > 100 | > 100 |  | > 100 | 
CCN1CCN(CC(=O)Nc2nc3ccc(NCc4ccc(Cl)cc4)cc3s2)CC1 | 8.01 | 3.5 |  | 16.8 | 6.86 | > 100 | 3.31 | 4.5 | 3.17 | 2.18 | 4.69 | 2.76 | 1.82 |  | 3.16 | 2.65 | 3.25 | 1.8 | 1.68 | 1.88
Cc1ccc(NC(=O)c2cc3ccccc3c(N=Nc3ccccc3O)c2O)c(C)c1 | 12.7 | 11.5 | 19.5 | 3.98 | 20 |  | 79.1 | 2.5 |  |  | 12.1 |  |  |  |  |  |  |  |  | 
OCC(O)C(OC1OC(CO)C(O)C(O)C1O)c1nn(-c2ccccc2)c2nc3cc(Cl)c(Cl)cc3cc12 (stereo not drawn) |  |  | > 100 | > 100 | > 100 | > 100 | > 100 | > 100 | > 100 |  | > 100 |  |  |  |  |  |  |  |  | 
C=C1C(=O)OC2C1CC[C@H](C)C13OC(=O)CC1[C@@]23C (stereo partly drawn) | > 100 | > 100 | > 100 | > 100 | > 100 | > 100 | > 100 | > 100 |  |  | > 100 |  |  |  |  |  |  |  |  | 
